Like-named read-outs stand apart in the source and are kept apart here.

The record followed here is patent publication US10329243B2, “Biphenyl derivative and uses thereof” (XI'AN LIBANG PHARMACEUTICAL CO., LTD, priority 2015, dated 2019).

Holding throughout (type): in vivo, SD rats
Experiment [1] concerns rats with cerebral ischemic reperfusion injury. The procedure: 336 healthy male SD rats weighing 250-300 g, provided by the Experimental Animal Center of the Fourth Military Medical University, were randomly divided into 14 groups: the sham operation group, the ischemic reperfusion group, and Examples 1-12 groups (i.e., the Example groups).
(§1) Rats were intraperitoneally injected with 10% chloral hydrate 350 mg/kg after anesthesia and opened up at the center of the neck in accordance with the Zea Longa modified method. The right common carotid artery was separated, and the right external carotid artery branches was ligated. A small opening was made at the distal end of the external carotid artery, and a previously prepared thread was inserted through the common carotid artery and the external carotid artery bifurcation into the internal carotid artery, till the anterior end of the middle cerebral artery, with an immersed depth of 18 to 19 mm. The thread was then secured, and the wound was sutured layer by layer. After the operation, the rats were placed in a clean incubator to wake up. […] The sham operation group, the ischemic reperfusion group, and the Example groups were prepared strictly according to the requirements of the cerebral ischemic reperfusion model, while in the sham operation group the thread was put only into the external carotid artery. The animals were allowed to eat and drink freely after waking up. After 2 h, the thread was pulled out to achieve reperfusion. The sham operation group, the ischemic reperfusion group, and the Example groups were administered intravenously the aqueous solution of the biphenyl derivatives in PEG400 at 40 mg/kg (40 mg/kg means that 40 mg of the test compound per kg of the body weight of rats) 30 min before reperfusion and 12 h after reperfusion, respectively. The sham operation group and the ischemic reperfusion group were injected with the same amount of blank PEG400 aqueous solution at the same time point.
The neurological impairment was scored in each group 24 h after reperfusion. The scoring was in accordance with the Longa 5-grade method: grade 0: no nerve injury symptom; grade 1: inability of stretching the contralateral forepaw; grade 2: circling to the opposite side; grade 3: tumbling to the opposite side; grade 4: no autonomous activity with loss of consciousness.

Experiment [2] concerns MDA. Description: MDA determination, cerebral ischemic reperfusion MCAO model. The procedure:
as §1
(§2) 24 hours after reperfusion, 8 rats in each group were sacrificed by decapitation, the brain was removed, rinsed with PBS (pH 7.4) at −20° i for 20 min, evenly sliced (with a thickness of 2 mm), stained in a 2% TTC solution at 37°% in the dark for 30 min, fixed in 10% formalin for 24 h, and photographs were taken to analyze the infarct volume. A mixture of femoral arterial and venous blood was drawn from another 8 rats in each group under anesthesia, placed in a low temperature centrifuge at 4° C., centrifuged at 3500 r/min for 20 min, and the supernatant was stored in a refrigerator at −20° C. ready for SOD and MDA detection. After the blood was drawn, a perfusion needle was insert through the apex to the ascending aorta, and saline at 4° C. was rapid infused until the effluent became clear, followed by 4% paraformaldehyde phosphate buffer perfusion for fixation; the brain was removed by craniotomy, and brain tissues 2 mm in front of and behind the optic chiasma were taken and fixed, dehydrated, rendered transparent, impregnated in wax, and embedded. Brain continuous coronary tissue pathological sections were consecutively cut for later use. The remaining 8 rats in each group were sacrificed, brains were removed, the ischemic brain hemispheres were immediately taken on an ice tray, and 10% brain tissue homogenate was prepared for the detection of IL-1β and TNF-α.
(§3) SOD and MDA were determined strictly in accordance with instructions of the kit.

Experiment [3] deals with MDA. Kind of experiment: MDA determination, permanent cerebral ischemia model. The method, then: as §1, with “the permanent cerebral ischemia model” for “the ischemic reperfusion”, “up.” for “up. After 2 h, the thread was pulled out to achieve reperfusion.”, “before insertion of thread” for “before reperfusion”, “after embolism,” for “after reperfusion,”
as §2, with “the embolism,” for “reperfusion,”, “−20°i” for “−20° i”
as §3

For the next experiment, the system named is Fas. Description: Fas determination (immunohistochemical method), permanent cerebral ischemia model. The method, then:
as §1, with “the permanent cerebral ischemia model” for “the ischemic reperfusion”, “up.” for “up. After 2 h, the thread was pulled out to achieve reperfusion.”, “before insertion of thread” for “before reperfusion”, “after embolism,” for “after reperfusion,”
as §2, with “the embolism,” for “reperfusion,”, “−20°i” for “−20° i”
The immunohistochemical method was used for determination. Brain tissue paraffin sections were dewaxed into water, washed with 3% H2O2 to eliminate endogenous peroxidase activity, and rinsed with distilled water for 3 times. Sodium citrate buffer was used for antigen heat repairing, and blocking with calf serum was carried out at room temperature for 15 min; a rabbit anti-mouse Fas antibody was added dropwise, allowed to stand at 4°t overnight, biotinylated goat anti-rabbit IgG was added dropwise, and heated in a water bath at 37°a for 20 min. Washing with PBS for 5 min was continuously repeated 4 times, followed by staining with DAB and sufficient washing without counterstaining. The sections were then gradient dehydrated with alcohol, made transparent with toluene, sealed and fixed. Images were captured by a video camera under high-power optical microscope and inputted into the image analysis system for image analysis. […]

[4] abbreviates: ischemic reperfusion MCAO rats, 40 mg/kg intravenously 30 min before and 12 h after reperfusion, scored 24 h after reperfusion, Longa grade 0-4.
The mark [5] stands for this setting: permanent cerebral ischemia model rats, edaravone 3 mg/kg.
[6] abbreviates: ischemic reperfusion MCAO rats, 40 mg/kg intravenously 30 min before and 12 h after reperfusion, serum, 24 h after reperfusion.
Where [7] appears, read: permanent cerebral ischemia model rats, 40 mg/kg intravenously, serum, 24 h after the embolism.
[8] abbreviates: permanent cerebral ischemia model rats, 40 mg/kg intravenously, brain sections 24 h after the embolism, gray scale inversely proportional to positive expression.

Regarding “3,3′,5,5′-tetraisopropylbiphenyl-4,4′-bis(oxymethylene phosphate) [Example 3 group]”, the “Average score of neurological impairment” value in experiment [1] (setting [4]) is reported as 2.4. Besides, the “MDA CONTENT” value turned out to be 5.36 ± 0.47 mmol/mL in the experiment on MDA [2] (rat, in vivo, iv, 40 mg/kg) and 5.07 ± 0.77 mmol/mL in the experiment with MDA [3] (rat, in vivo, iv, 40 mg/kg). The “Fas average gray scale” value in the experiment with Fas (rat, in vivo, iv, 40 mg/kg) is listed as 143.39 ± 4.23.

`CC1=NN(c2ccccc2)C(=O)C1` [Edaravone injection, edaravone, reference compound]: the “MDA CONTENT” value in the experiment with MDA [2] (ischemic reperfusion rat model, edaravone 3 mg/kg) was determined as 6.17 ± 0.54 mmol/mL; with MDA [3] (setting [5]), 5.98 ± 0.44 mmol/mL. For the same molecule, the “Fas average gray value” with Fas (setting [5]) worked out at 138.95 ± 5.50.

On to `CC(=O)Oc1c(C(C)C)cc(-c2cc(C(C)C)c(O)c(C(C)C)c2)cc1C(C)C` [Example 1 group, 4′-hydroxy-3,3′,5,5′-tetraisopropylbiphenyl-4-acetate], for which, in experiment [1] (setting [4]), the “Average score of neurological impairment” value is 2.0. Moreover, the “MDA CONTENT” value with MDA [2] (ischemic reperfusion MCAO rats, 40 mg/kg intravenously 30 min before and 12 h after reperfusion, serum, 24 h after reperfusion, 40 mg/kg) turned out to be 4.74 ± 0.67 mmol/mL; in the experiment with MDA [3] (permanent cerebral ischemia model rats, 40 mg/kg intravenously, serum, 24 h after the embolism, 40 mg/kg) it was 4.49 ± 0.59 mmol/mL.

With `CC(=O)Oc1c(C(C)C)cc(-c2cc(C(C)C)c(OC(C)=O)c(C(C)C)c2)cc1C(C)C` [Example 2 group, 3,3′,5,5′-tetraisopropylbiphenyl-4′-diacetate], the “Average score of neurological impairment” value in experiment [1] (setting [4]) was determined as 2.1. The “MDA CONTENT” value in the experiment on MDA [2] (setting [6]) turned out to be 5.44 ± 0.49 mmol/mL; with MDA [3] (setting [7]), 5.10 ± 0.82 mmol/mL. Besides, the “Fas average gray scale” value in the experiment on Fas (setting [8]) came out at 149.63 ± 8.15.

As for `CC(C)c1cc(-c2cc(C(C)C)c(OC(=O)CCC(=O)O)c(C(C)C)c2)cc(C(C)C)c1O` [Example 5 group, [4-(4′-hydroxy-3,3′,5,5′-tetraisopropylbiphenyl)oxy]-4-carbonyl butyric acid], the “Average score of neurological impairment” value in experiment [1] (setting [4]) worked out at 2.2. For the same molecule, the “MDA CONTENT” value with MDA [2] (setting [6]) is 4.47 ± 0.34 mmol/mL; in the experiment on MDA [3] (setting [7]) it was 4.68 ± 0.42 mmol/mL. Besides, the “Fas average gray scale” value in the experiment on Fas (setting [8]) stood at 143.02 ± 5.53.

Consider `CCCc1cc(-c2cc(CCC)c(O)c(C(C)C)c2)cc(C(C)C)c1O` [Example 6 group, 4,4′-dihydroxy-3,3′-diisopropyl-5,5′-dipropylbiphenyl], for which, in experiment [1] (setting [4]), the “Average score of neurological impairment” value was found to be 2.0. The “MDA CONTENT” value with MDA [2] (setting [6]) stood at 4.26 ± 0.41 mmol/mL; with MDA [3] (setting [7]) it was 4.31 ± 0.51 mmol/mL. Further, the “Fas average gray scale” value in the experiment on Fas (setting [8]) is reported as 151.63 ± 5.58.

`CCCc1cc(-c2cc(CCC)c(O)c(CCC)c2)cc(CCC)c1O` [Example 7 group, 4,4′-dihydroxy-3,3′,5,5′-tetrapropylbiphenyl]: the “Average score of neurological impairment” value in experiment [1] (setting [4]) stood at 2.1. In addition, the “MDA CONTENT” value is recorded as 4.97 ± 0.50 mmol/mL with MDA [2] (setting [6]) and 4.42 ± 0.39 mmol/mL in the experiment on MDA [3] (setting [7]). In addition, in the experiment with Fas (setting [8]), the “Fas average gray scale” value is 153.46 ± 5.73.

In the case of `CC(C)c1cc(-c2cc(C(C)C)c(C(=O)O)c(C(C)C)c2)cc(C(C)C)c1O` [Example 8 group, 4′-hydroxy-3,3′,5,5′-tetraisopropylbiphenyl-4-carboxylic acid], in experiment [1] (setting [4]), the “Average score of neurological impairment” value is 2.3. Besides, the entries for the “MDA CONTENT” value with MDA [2] (setting [6]) and with MDA [3] (setting [7]) were 5.12 ± 0.47 mmol/mL and 5.06 ± 0.28 mmol/mL, respectively. Moreover, in the experiment on Fas (setting [8]), the “Fas average gray scale” value is 145.24 ± 5.26.

On to `CC(C)c1cc(-c2cc(C(C)C)c(Cl)c(C(C)C)c2)cc(C(C)C)c1O` [Example 9 group, 4-chloro-4′-hydroxy-3,3′,5,5′-tetraisopropylbiphenyl], for which the “Average score of neurological impairment” value in experiment [1] (rat, in vivo, iv, 40 mg/kg) was determined as 2.4. In addition, the “MDA CONTENT” value in the experiment on MDA [2] (rat, in vivo, iv, 40 mg/kg) is 5.61 ± 0.71 mmol/mL; in the experiment with MDA [3] (rat, in vivo, iv, 40 mg/kg) it was 5.26 ± 0.49 mmol/mL. In addition, the “Fas average gray scale” value in the experiment on Fas (rat, in vivo, iv, 40 mg/kg) worked out at 144.31 ± 5.49.

In the case of `CC(C)c1cc(-c2cc(C(C)C)c(OC=O)c(C(C)C)c2)cc(C(C)C)c1O` [Example 10 group], in experiment [1] (setting [4]), the “Average score of neurological impairment” value is listed as 2.2. The “Fas average gray scale” value in the experiment on Fas (setting [8]) was determined as 140.62 ± 3.85.

Regarding `CC(C)c1cc(-c2cc(C(C)C)c(OC(=O)C(N)C(C)C)c(C(C)C)c2)cc(C(C)C)c1O` (stereo not shown) [Example 11 group, 4′-hydroxy-3,3′,5,5′-tetraisopropylbiphenyl-2-amino-3-methylbutyrate], in experiment [1] (setting [4]), the “Average score of neurological impairment” value is recorded as 2.2. For the same molecule, the “MDA CONTENT” value in the experiment on MDA [2] (setting [6]) came to 4.92 ± 0.52 mmol/mL. Moreover, in the experiment on Fas (setting [8]), the “Fas average gray scale” value stood at 150.72 ± 4.19.

For the molecule `CC(=O)OC(C)Oc1c(C(C)C)cc(-c2cc(C(C)C)c(O)c(C(C)C)c2)cc1C(C)C` (stereo not shown) [Example 12 group, Ethyl 1-(4′-hydroxy-3,3′,5,5′-tetraisopropylbiphenyl-4-oxo)acetate], in experiment [1] (setting [4]), the “Average score of neurological impairment” value came to 2.4. Moreover, the “MDA CONTENT” value in the experiment with MDA [2] (setting [6]) was 5.37 ± 0.55 mmol/mL; in the experiment with MDA [3] (setting [7]), 6.03 ± 0.36 mmol/mL. Moreover, the “Fas average gray scale” value with Fas (setting [8]) was 139.48 ± 5.72.
